Active and inactive are the calls of the source.
Tests used:
[1] = target: T1, Small ubiquitin-related modifier 1 (Homo sapiens, UniProt P63165); assay: SUMO1 protein interaction blockers, potency – biochemical, fluorescence polarization, uHTS hits, dose response (AID 624382); format: functional; settings: read-out: IC50_Mean
[2] = target: T2, DNA repair and recombination protein RAD54-like (Homo sapiens, UniProt Q92698); assay: RAD54 Holliday junction migration blockers – biochemical, fluorescence, cherry-picked samples, dose series, confirmation (AID 651657); format: functional
T2 sequence (Q92698 whole entry): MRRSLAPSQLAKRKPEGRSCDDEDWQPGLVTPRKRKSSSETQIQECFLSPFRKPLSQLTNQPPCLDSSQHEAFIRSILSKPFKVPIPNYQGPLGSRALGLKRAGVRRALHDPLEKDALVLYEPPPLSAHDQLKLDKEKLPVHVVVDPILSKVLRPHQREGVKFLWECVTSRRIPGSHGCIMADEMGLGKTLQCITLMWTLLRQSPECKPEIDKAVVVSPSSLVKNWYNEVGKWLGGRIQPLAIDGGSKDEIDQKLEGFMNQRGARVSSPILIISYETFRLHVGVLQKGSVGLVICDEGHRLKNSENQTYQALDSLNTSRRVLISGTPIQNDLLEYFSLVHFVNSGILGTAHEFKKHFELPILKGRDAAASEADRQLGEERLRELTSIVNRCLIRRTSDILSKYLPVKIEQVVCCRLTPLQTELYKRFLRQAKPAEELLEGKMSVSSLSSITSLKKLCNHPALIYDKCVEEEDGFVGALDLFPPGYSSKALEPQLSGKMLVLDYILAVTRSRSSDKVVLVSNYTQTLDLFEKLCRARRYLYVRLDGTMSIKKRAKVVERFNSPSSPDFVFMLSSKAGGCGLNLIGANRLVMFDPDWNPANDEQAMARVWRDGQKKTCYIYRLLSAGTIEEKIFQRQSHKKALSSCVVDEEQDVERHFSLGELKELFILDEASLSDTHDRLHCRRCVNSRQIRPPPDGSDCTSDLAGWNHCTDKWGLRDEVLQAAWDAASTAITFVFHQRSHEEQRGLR

[3] = target: T1, Small ubiquitin-related modifier 1; assay: SUMO1 protein-protein binding blockers, potency – biochemical, FRET, dose response (AID 624383); format: functional; settings: read-out: IC50_Mean
[4] = target: T3, Calpain-2 catalytic subunit (Sus scrofa, UniProt P43367); assay: m-calpain protease blockers, concentration series – biochemical, fluorogenic peptide substrate, dose response (AID 1420); format: functional
T3 sequence (P43367 whole entry): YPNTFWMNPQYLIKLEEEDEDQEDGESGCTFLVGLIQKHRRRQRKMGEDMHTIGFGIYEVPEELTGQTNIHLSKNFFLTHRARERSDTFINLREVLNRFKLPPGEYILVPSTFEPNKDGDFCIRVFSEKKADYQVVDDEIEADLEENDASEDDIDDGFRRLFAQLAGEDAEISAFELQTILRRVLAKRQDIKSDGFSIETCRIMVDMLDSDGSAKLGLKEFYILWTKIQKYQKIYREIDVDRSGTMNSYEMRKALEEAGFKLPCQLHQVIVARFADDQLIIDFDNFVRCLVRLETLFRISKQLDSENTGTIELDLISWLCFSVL

[5] = target: T4, Estrogen receptor (Homo sapiens, UniProt P03372);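 also: potency for inhibiting coactivator peptide recruitment to the receptor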
T4 sequence (P03372 whole entry): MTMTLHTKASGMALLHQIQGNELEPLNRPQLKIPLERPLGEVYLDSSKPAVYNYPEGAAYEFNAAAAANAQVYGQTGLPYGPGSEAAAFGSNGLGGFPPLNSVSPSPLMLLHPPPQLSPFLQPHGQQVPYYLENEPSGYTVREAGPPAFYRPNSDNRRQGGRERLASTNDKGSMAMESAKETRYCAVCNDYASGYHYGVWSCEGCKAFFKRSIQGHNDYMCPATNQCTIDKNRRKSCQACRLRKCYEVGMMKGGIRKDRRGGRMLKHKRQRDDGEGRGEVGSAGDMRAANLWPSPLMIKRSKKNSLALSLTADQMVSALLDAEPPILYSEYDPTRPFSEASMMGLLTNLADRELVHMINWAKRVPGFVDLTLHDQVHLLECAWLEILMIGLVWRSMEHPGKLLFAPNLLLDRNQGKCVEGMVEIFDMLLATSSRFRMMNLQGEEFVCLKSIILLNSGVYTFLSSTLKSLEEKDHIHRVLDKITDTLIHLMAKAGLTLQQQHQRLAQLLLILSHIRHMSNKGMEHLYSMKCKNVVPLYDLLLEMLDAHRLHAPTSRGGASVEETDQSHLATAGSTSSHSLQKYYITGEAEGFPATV

[6] = target: Glyceraldehyde-3-phosphate dehydrogenase (Homo sapiens, UniProt P04406)
[7] = target: T5, Alkaline phosphatase, tissue-nonspecific isozyme (Homo sapiens, UniProt P05186); assay: potency against alkaline phosphatase TNAP – biochemical, luminescent, dose response, SAR follow-up (AID 1056)
T5 sequence (P05186 whole entry): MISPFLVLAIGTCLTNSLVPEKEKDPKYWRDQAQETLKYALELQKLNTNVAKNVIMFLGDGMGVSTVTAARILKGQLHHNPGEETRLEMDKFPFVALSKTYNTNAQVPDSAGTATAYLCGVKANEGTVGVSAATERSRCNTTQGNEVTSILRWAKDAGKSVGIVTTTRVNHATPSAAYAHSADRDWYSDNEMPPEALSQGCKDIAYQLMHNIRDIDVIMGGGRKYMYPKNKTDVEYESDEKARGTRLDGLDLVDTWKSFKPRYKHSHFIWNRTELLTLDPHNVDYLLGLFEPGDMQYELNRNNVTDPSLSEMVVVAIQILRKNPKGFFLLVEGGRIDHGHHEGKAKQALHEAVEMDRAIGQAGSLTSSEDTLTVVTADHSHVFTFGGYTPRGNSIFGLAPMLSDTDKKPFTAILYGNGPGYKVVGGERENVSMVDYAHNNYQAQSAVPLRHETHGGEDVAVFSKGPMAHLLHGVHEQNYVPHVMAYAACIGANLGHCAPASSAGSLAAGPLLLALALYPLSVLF

[8] = target: T6, Microphthalmia-associated transcription factor (Homo sapiens, UniProt O75030); assay: reducers of TRPM1 reporter luminescence, concentration series – cell-based, SK-MEL-5, cherry-picked, set 3, MITF inhibitor project, dose response (AID 493073); format: functional;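 also: SK-MEL-5 melanoma cells with luciferase driven by the MITF target TRPM1 promoter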
T6 sequence (O75030 whole entry): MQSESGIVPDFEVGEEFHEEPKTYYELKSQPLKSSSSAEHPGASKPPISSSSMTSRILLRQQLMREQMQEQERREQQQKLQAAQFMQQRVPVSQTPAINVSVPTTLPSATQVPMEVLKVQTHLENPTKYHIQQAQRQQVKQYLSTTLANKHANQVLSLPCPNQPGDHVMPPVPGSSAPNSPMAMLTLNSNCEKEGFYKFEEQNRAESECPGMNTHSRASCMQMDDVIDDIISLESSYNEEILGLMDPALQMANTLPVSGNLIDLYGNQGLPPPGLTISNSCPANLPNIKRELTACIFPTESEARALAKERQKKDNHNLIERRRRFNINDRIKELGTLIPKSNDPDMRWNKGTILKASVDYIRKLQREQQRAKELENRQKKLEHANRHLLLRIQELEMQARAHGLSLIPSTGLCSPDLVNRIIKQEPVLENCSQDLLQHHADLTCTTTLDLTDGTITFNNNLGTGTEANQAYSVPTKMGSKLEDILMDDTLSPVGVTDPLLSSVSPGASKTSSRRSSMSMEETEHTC

[9] = tested on: BJ; assay: BJ-TERT fibroblast viability loss – cell-based, RAS-independent, luminescence, dose response (AID 1933); format: functional; settings: Homo sapiens
[10] = Fluorescence-based cell-based high throughput dose response assay for inhibitors of the interaction of nucleotide-binding oligomerization domain containing 2 (NOD2) and the receptor-interacting serine-threonine kinase 2 (RIPK2).; format: functional; settings: Homo sapiens
[11] = tested on: BJ; assay: BJ-TERT-LT-ST fibroblast viability loss – cell-based, RAS-independent, luminescence, dose response (AID 1935); format: functional; settings: Homo sapiens;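 also: BJ fibroblasts immortalized with TERT plus LT and ST oncogenes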
[12] = DRD fibroblast viability loss – cell-based, non-viral oncogenic, luminescence, dose response (AID 1934); format: functional; settings: Homo sapiens
[13] = tested on: BJ; assay: cells; format: functional, cell-based; settings: Homo sapiens
[14] = target: T7, Epstein-Barr nuclear antigen 1 (Epstein-Barr virus (strain B95-8) (HHV-4) (Human herpesvirus 4), UniProt P03211); assay: inhibition of EBV nuclear antigen 1 DNA binding – biochemical, fluorescence polarization, 1536-well, dose response (AID 2381); parameters: species or system human gammaherpesvirus 4;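 also: fluorescence polarization of a Cy5 DNA probe bound by EBNA-1 protein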
T7 sequence (P03211 whole entry): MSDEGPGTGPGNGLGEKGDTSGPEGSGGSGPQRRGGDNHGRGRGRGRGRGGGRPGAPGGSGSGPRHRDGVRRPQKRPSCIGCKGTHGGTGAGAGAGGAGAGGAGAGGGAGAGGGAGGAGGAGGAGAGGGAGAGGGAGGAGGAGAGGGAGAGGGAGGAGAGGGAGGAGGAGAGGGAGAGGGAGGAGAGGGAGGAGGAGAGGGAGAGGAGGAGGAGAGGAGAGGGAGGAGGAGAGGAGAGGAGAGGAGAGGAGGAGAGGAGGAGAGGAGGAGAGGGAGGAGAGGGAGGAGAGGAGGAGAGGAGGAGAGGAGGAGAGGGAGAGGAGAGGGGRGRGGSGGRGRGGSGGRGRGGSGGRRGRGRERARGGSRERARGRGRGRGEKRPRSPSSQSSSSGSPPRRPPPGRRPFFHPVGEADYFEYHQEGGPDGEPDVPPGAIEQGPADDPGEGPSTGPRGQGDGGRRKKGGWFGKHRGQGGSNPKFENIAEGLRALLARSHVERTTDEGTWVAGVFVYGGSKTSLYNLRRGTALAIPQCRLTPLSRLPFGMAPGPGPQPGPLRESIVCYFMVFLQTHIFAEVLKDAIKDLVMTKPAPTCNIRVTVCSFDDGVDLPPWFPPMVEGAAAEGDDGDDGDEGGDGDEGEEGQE

[15] = target: T8, Lytic switch protein BZLF1 (Epstein-Barr virus (strain B95-8) (HHV-4) (Human herpesvirus 4), UniProt P03206); assay: inhibition of BZLF1 ZTA DNA binding – biochemical, fluorescence polarization, Epstein-Barr virus, 1536-well, counter-screen for EBNA-1 inhibitor project, dose response (AID 2377); parameters: species or system human gammaherpesvirus 4;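 also: fluorescence polarization of Cy5-labelled ZRE DNA probe bound by purified Zta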
T8 sequence (P03206 whole entry): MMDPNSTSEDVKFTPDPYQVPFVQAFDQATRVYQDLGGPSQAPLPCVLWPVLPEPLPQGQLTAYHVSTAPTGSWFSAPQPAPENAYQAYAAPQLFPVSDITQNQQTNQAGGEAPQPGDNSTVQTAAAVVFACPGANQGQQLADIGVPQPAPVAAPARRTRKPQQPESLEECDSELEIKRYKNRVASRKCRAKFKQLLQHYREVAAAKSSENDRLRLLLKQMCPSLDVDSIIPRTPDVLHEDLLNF

[16] = target: T9, DNA repair protein RAD52 homolog (Homo sapiens, UniProt P43351); format: functional, biochemical
T9 sequence (P43351 whole entry): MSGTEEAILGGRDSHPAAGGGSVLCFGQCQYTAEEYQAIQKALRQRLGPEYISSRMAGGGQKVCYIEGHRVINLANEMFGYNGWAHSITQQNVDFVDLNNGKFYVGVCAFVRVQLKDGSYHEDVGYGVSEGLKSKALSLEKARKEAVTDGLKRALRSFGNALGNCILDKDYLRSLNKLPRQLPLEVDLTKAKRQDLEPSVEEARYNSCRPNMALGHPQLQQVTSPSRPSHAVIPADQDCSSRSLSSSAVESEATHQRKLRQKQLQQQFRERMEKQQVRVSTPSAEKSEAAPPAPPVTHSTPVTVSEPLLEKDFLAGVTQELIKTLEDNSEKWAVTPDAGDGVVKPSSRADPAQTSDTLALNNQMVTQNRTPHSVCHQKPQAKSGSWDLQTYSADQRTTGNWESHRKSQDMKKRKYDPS

[17] = target: Disintegrin and metalloproteinase domain-containing protein 17 (Homo sapiens, UniProt P78536); assay: inhibition of ADAM17 substrate cleavage – biochemical, quenched FRET substrate, counter-screen for ADAM10 exosite inhibitor project, dose response (AID 743253)
[18] = potency of ADAM10 substrate cleavage blockers – biochemical, QFRET, dose response (AID 743254);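 also: ADAM10 enzyme with the DM2 quenched FRET peptide as substrate; EDANS fluorescence gain as the protease cuts the substrate; inhibitor potency against ADAM10 proteolytic activity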
[19] = A Cell Based Secondary Assay To Explore Cytotoxicity of Compounds that Sensitize Mycobacterium Tuberculosis to Beta-Lactam Antibiotics.; format: functional
[20] = toxicity to human hepatoma HepG2 cells – cell-based, cherry-picked samples, cytotoxicity control, dose response (AID 1159577); format: functional
[21] = P. falciparum Dd2 growth inhibitors, dose response, SYBR Green, cherry-picked samples (AID 1159567); format: functional, cell-based

Sequence of Disintegrin and metalloproteinase domain-containing protein 17 (P78536 whole entry, the tested form may be a part): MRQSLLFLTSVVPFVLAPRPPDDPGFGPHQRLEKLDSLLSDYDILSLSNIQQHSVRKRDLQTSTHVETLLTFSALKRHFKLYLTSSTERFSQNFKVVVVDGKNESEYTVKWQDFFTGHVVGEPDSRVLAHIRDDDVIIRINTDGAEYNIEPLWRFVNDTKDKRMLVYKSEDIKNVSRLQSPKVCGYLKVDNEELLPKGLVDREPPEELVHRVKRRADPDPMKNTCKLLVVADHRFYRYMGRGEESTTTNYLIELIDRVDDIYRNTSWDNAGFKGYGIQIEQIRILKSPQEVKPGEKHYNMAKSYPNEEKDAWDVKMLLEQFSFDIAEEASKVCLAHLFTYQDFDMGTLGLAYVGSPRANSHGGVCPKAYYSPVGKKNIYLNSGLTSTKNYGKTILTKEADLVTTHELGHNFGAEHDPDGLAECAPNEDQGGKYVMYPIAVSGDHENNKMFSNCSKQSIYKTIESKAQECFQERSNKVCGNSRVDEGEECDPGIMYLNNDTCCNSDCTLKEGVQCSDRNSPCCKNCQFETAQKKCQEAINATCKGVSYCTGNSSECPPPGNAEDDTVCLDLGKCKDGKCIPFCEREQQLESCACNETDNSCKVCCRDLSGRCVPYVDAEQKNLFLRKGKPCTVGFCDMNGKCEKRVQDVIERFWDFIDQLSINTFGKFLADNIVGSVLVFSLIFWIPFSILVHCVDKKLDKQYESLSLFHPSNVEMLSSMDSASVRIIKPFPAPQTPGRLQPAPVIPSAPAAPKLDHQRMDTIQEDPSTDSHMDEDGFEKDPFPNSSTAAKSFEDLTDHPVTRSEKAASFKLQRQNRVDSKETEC
T1 sequence (P63165 whole entry): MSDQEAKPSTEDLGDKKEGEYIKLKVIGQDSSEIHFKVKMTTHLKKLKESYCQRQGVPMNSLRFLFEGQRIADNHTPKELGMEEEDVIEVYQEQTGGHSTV
Sequence of Glyceraldehyde-3-phosphate dehydrogenase (P04406 whole entry): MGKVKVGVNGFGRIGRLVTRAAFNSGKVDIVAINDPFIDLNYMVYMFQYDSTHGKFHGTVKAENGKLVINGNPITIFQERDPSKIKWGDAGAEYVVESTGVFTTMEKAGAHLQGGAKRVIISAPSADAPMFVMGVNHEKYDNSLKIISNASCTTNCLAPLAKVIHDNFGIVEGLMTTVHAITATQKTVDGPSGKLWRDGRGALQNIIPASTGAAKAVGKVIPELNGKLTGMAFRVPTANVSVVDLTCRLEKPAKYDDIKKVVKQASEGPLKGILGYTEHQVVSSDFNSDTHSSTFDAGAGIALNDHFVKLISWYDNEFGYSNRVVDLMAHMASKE

SMILES: O=C(Nc1ccc(Nc2ccncc2)cc1)c1ccc(Nc2ccnc3ccc([N+](=O)[O-])cc23)cc1
- IC50 [1]: > 66.6 µM (inactive)
- AC50 [2]: 100 µM (inactive)
- IC50 [3]: 0.326 µM (active)
- IC50 [4]: 3.36 µM (not active)

SMILES: Nc1nc(N2C(=O)C3CC=CCC3C2=O)nn1-c1ccccc1 (configuration not stated)
- IC50 [5]: > 50 µM (not active)
- IC50 [6]: > 100 µM (not active)
- IC50 [7]: > 100 µM (inactive)

SMILES: CNC(=O)COC(=O)c1ccccc1C(=O)c1ccc(Cl)c([N+](=O)[O-])c1
- AC50 [8]: 9.77 µM (active)
- EC50 [9]: 4.68 µM (active)
- IC50 [10]: 2.58 µM (active)
- EC50 [11]: 2.42 µM (inconclusive)
- EC50 [12]: 10 µM (inconclusive)
- EC50 [13]: 5.44 µM (inconclusive)

SMILES: CCOc1cccc(NC(=O)Cn2nc(-c3ccc4c(c3)OCCO4)ccc2=O)c1
- IC50 [14]: 13.7 µM (not active)
- IC50 [15]: > 111 µM (not active)

SMILES: Cc1[nH]c2ccc(O)cc2c1CCN
- AC50 [16]: 4.06 µM (active)

SMILES: CC(=O)Nc1ccc(NC(=O)C(C)OC(=O)c2oc3ccccc3c2C)cc1 (configuration not stated)
- IC50 [14]: 9.16 µM (active)
- IC50 [15]: > 111 µM (not active)

SMILES: COc1ccc2c(c1)c(CC(=O)Nc1ccc(C(C)=O)cc1)c(C)n2C(=O)c1ccc(Cl)cc1
- IC50 [17]: > 69.5 µM (inactive)
- IC50 [18]: > 69.5 µM (inactive)

SMILES: CCN(CC)CCN(C(=O)C1=COCCO1)c1nc2c(OC)ccc(OC)c2s1
- AC50 [2]: 23.5 µM (active)
- AC50 [16]: 8.89 µM (active)

SMILES: COc1ccc(CN([C@H](CO)CC(C)C)S(=O)(=O)N(Cc2ccccc2)[C@H](CO)CC(C)C)cc1
- IC50 [17]: > 69.5 µM (inactive)
- IC50 [18]: 5.93 µM (active)

SMILES: COc1ccc(-c2c/c(=N\c3ccc(C)cc3)c3ccccc3o2)cc1
- CC50 [19]: > 40 µM (active)

SMILES: COc1ccc2c3c([nH]c2c1)[C@H](CO)N(CC1CC1)CC31CCN(S(=O)(=O)c2cccc(F)c2)CC1
- AC50 [20]: > 39 µM (inactive)
- AC50 [21]: 4 µM (active)

Source: ChEMBL document CHEMBL1201862, “PubChem BioAssay data set” (2004)
